Patent US20240050428A1 (Cullgen (Shanghai), Inc., priority 2020, published 2024)
Like-named read-outs stand apart in the source and are kept apart here.

Experiments:
MV4;11 cells = test: Cell viability assay (CellTiter-Glo) in MV4;11 cells, alone or with gilteritinib; assay type: cell-based; conditions: Homo sapiens, MV4-11, 72 h, read-out: MV4
MOLM-13 cells = test: Cell viability assay (CellTiter-Glo) in MOLM-13 cells, alone or with gilteritinib; assay type: cell-based; conditions: Homo sapiens, MOLM-13, 72 h
[1] = MV4;11 cells, compound alone (without gilteritinib), three days, CellTiter-Glo, 11 IC50
[2] = MV4;11 cells, with gilteritinib 10 nM, three days, CellTiter-Glo, 11 IC50 gilteritinib
[3] = MOLM-13 cells, compound alone (without gilteritinib), three days, CellTiter-Glo, read-out: MOLM-13 IC50
[4] = MOLM-13 cells, with gilteritinib 20 nM, three days, CellTiter-Glo, read-out: MOLM-13 IC50 gilteritinib

| SMILES | IC50 (MV4;11 cells; [1]) | IC50 (MV4;11 cells; [2]) | IC50 (MOLM-13 cells; [3]) | IC50 (MOLM-13 cells; [4]) | IC50 (MV4;11 cells; 11 IC50) | IC50 (MV4;11 cells; 11 IC50 gilteritinib) | IC50 (MOLM-13 cells; read-out: MOLM-13 IC50) | IC50 (MOLM-13 cells; read-out: MOLM-13 IC50 gilteritinib) |
| --- | --- | --- | --- | --- | --- | --- | --- | --- |
| O=C1CCC(N2Cc3c(Nc4ccnc(Nc5cccc(N6CCC(n7cc(-c8cnc9ccccc9n8)cn7)CC6)c5)n4)cccc3C2=O)C(=O)N1 (centres unmarked) [GS-025, 3-(1-Oxo-4-((2-((3-(4-(4-(quinoxalin-2-yl)-1H-pyrazol-1-yl)piperidin-1-yl)phenyl)amino)pyrimidin-4-yl)amino)isoindolin-2-yl)piperidine-2,6-dione] | 10 to 100 nM | < 10 nM | < 10 nM | < 10 nM | – | – | – | – |
| O=C1CCC(N2Cc3c(Nc4ccnc(Nc5ccc(N6CCC(n7cc(-c8cnc9cccc(Br)c9n8)cn7)CC6)cc5)n4)cccc3C2=O)C(=O)N1 (centres unmarked) [GS-026, 3-(4-((2-((4-(4-(4-(8-Bromoquinoxalin-2-yl)-1H-pyrazol-1-yl)piperidin-1-yl)phenyl)amino)pyrimidin-4-yl)amino)-1-oxoisoindolin-2-yl)piperidine-2,6-dione] | > 1000 nM | > 1000 nM | > 1000 nM | > 1000 nM | – | – | – | – |
| O=C1CCC(N2Cc3c(Nc4ccnc(Nc5ccc(N6CCC(n7cc(-c8cnc9ccccc9n8)cn7)CC6)cc5)n4)cccc3C2=O)C(=O)N1 (centres unmarked) [GS-027, 3-(1-Oxo-4-((2-((4-(4-(4-(quinoxalin-2-yl)-1H-pyrazol-1-yl)piperidin-1-yl)phenyl)amino)pyrimidin-4-yl)amino)isoindolin-2-yl)piperidine-2,6-dione] | > 1000 nM | > 1000 nM | 100 to 1000 nM | > 1000 nM | – | – | – | – |
| O=C1CCC(N2Cc3c(Nc4ccnc(Nc5cccc(CN6CCC(n7cc(-c8cnc9cccc(Br)c9n8)cn7)CC6)c5)n4)cccc3C2=O)C(=O)N1 (centres unmarked) [GS-028, 3-(4-((2-((3-((4-(4-(8-Bromoquinoxalin-2-yl)-1H-pyrazol-1-yl)piperidin-1-yl)methyl)phenyl)amino)pyrimidin-4-yl)amino)-1-oxoisoindolin-2-yl)piperidine-2,6-dione] | 10 to 100 nM | 10 to 100 nM | 100 to 1000 nM | 10 to 100 nM | – | – | – | – |
| O=C1CCC(N2Cc3c(Nc4ccnc(Nc5cccc(CN6CCC(n7cc(-c8cnc9ccccc9n8)cn7)CC6)c5)n4)cccc3C2=O)C(=O)N1 (centres unmarked) [GS-029, 3-(1-Oxo-4-((2-((3-((4-(4-(quinoxalin-2-yl)-1H-pyrazol-1-yl)piperidin-1-yl)methyl)phenyl)amino)pyrimidin-4-yl)amino)isoindolin-2-yl)piperidine-2,6-dione] | > 1000 nM | > 1000 nM | > 1000 nM | > 1000 nM | – | – | – | – |
| O=C1CCC(N2Cc3c(Nc4ccnc(Nc5ccc(CN6CCC(n7cc(-c8cnc9cccc(Br)c9n8)cn7)CC6)cc5)n4)cccc3C2=O)C(=O)N1 (centres unmarked) [GS-030, 3-(4-((2-((4-((4-(4-(8-Bromoquinoxalin-2-yl)-1H-pyrazol-1-yl)piperidin-1-yl)methyl)phenyl)amino)pyrimidin-4-yl)amino)-1-oxoisoindolin-2-yl)piperidine-2,6-dione] | > 1000 nM | > 1000 nM | > 1000 nM | > 1000 nM | – | – | – | – |
| O=C1CCC(N2Cc3c(Nc4ccnc(Nc5ccc(CN6CCC(n7cc(-c8cnc9ccccc9n8)cn7)CC6)cc5)n4)cccc3C2=O)C(=O)N1 (centres unmarked) [GS-031, 3-(1-Oxo-4-((2-((4-((4-(4-(quinoxalin-2-yl)-1H-pyrazol-1-yl)piperidin-1-yl)methyl)phenyl)amino)pyrimidin-4-yl)amino)isoindolin-2-yl)piperidine-2,6-dione] | 10 to 100 nM | < 10 nM | 10 to 100 nM | 10 to 100 nM | – | – | – | – |
| O=C1CCC(N2C(=O)c3ccc(NCCCCCC(=O)N4CCC(n5cc(-c6cnc7cccc(N8CCOCC8)c7n6)cn5)CC4)cc3C2=O)C(=O)N1 (centres unmarked) [GS-034, 2-(2,6-Dioxopiperidin-3-yl)-5-((6-(4-(4-(8-morpholinoquinoxalin-2-yl)-1H-pyrazol-1-yl)piperidin-1-yl)-6-oxohexyl)amino)isoindoline-1,3-dione] | 100 to 1000 nM | < 10 nM | > 1000 nM | < 10 nM | – | – | – | – |
| O=C1CCC(N2C(=O)c3ccc(NCCCCCC(=O)N4CCC(n5cc(-c6cnc7cccc(N8CCNCC8)c7n6)cn5)CC4)cc3C2=O)C(=O)N1 (centres unmarked) [GS-035, 2-(2,6-Dioxopiperidin-3-yl)-5-((6-oxo-6-(4-(4-(8-(piperazin-1-yl)quinoxalin-2-yl)-1H-pyrazol-1-yl)piperidin-1-yl)hexyl)amino)isoindoline-1,3-dione] | 10 to 100 nM | < 10 nM | > 1000 nM | < 10 nM | – | – | – | – |
| CN1CCN(c2cccc3ncc(-c4cnn(C5CCN(C(=O)CCCCCNc6ccc7c(c6)C(=O)N(C6CCC(=O)NC6=O)C7=O)CC5)c4)nc23)CC1 (centres unmarked) [GS-036, 2-(2,6-Dioxopiperidin-3-yl)-5-((6-(4-(4-(8-(4-methylpiperazin-1-yl)quinoxalin-2-yl)-1H-pyrazol-1-yl)piperidin-1-yl)-6-oxohexyl)amino)isoindoline-1,3-dione] | > 1000 nM | < 10 nM | > 1000 nM | 10 to 100 nM | – | – | – | – |
| CN1CCC(c2cccc3ncc(-c4cnn(C5CCN(C(=O)CCCCCNc6ccc7c(c6)C(=O)N(C6CCC(=O)NC6=O)C7=O)CC5)c4)nc23)CC1 (centres unmarked) [GS-045, 2-(2,6-Dioxopiperidin-3-yl)-5-((6-(4-(4-(8-(1-methylpiperidin-4-yl)quinoxalin-2-yl)-1H-pyrazol-1-yl)piperidin-1-yl)-6-oxohexyl)amino)isoindoline-1,3-dione] | 100 to 1000 nM | < 10 nM | > 1000 nM | < 10 nM | – | – | – | – |
| O=C1CCC(N2C(=O)c3ccc(NCCCCCC(=O)N4CCC(n5cc(-c6ccccc6)cn5)CC4)cc3C2=O)C(=O)N1 (centres unmarked) [GS-050, 2-(2,6-Dioxopiperidin-3-yl)-5-((6-oxo-6-(4-(4-phenyl-1H-pyrazol-1-yl)piperidin-1-yl)hexyl)amino)isoindoline-1,3-dione] | – | – | – | – | < 10 nM | < 10 nM | 10 to 100 nM | < 10 nM |
| O=C1CCC(N2C(=O)c3ccc(NCCCCCC(=O)N4CCC(n5cc(-c6ccc7cccc(Br)c7n6)cn5)CC4)cc3C2=O)C(=O)N1 (centres unmarked) [GS-052, 5-((6-(4-(4-(8-Bromoquinolin-2-yl)-1H-pyrazol-1-yl)piperidin-1-yl)-6-oxohexyl)amino)-2-(2,6-dioxopiperidin-3-yl)isoindoline-1,3-dione] | 100 to 1000 nM | < 10 nM | > 1000 nM | < 10 nM | – | – | – | – |

Second part, led by results:

| IC50 (MV4;11 cells; [1]) | IC50 (MV4;11 cells; [2]) | IC50 (MOLM-13 cells; [3]) | IC50 (MOLM-13 cells; [4]) | SMILES | IC50 (MV4;11 cells; 11 IC50) | IC50 (MV4;11 cells; 11 IC50 gilteritinib) | IC50 (MOLM-13 cells; read-out: MOLM-13 IC50) | IC50 (MOLM-13 cells; read-out: MOLM-13 IC50 gilteritinib) |
| --- | --- | --- | --- | --- | --- | --- | --- | --- |
| 10 to 100 nM | < 10 nM | 10 to 100 nM | < 10 nM | O=C1CCC(N2C(=O)c3ccc(NCCCCCC(=O)N4CCC(n5cc(-c6cnc7cccc(C8CCOCC8)c7n6)cn5)CC4)cc3C2=O)C(=O)N1 (centres unmarked) [GS-043, 2-(2,6-Dioxopiperidin-3-yl)-5-((6-oxo-6-(4-(4-(8-(tetrahydro-2H-pyran-4-yl)quinoxalin-2-yl)-1H-pyrazol-1-yl)piperidin-1-yl)hexyl)amino)isoindoline-1,3-dione] | – | – | – | – |
| 10 to 100 nM | < 10 nM | 10 to 100 nM | < 10 nM | O=C1CCC(N2C(=O)c3ccc(NCCCCCC(=O)N4CCC(n5cc(-c6cnc7cccc(C8CCNCC8)c7n6)cn5)CC4)cc3C2=O)C(=O)N1 (centres unmarked) [GS-044, 2-(2,6-dioxopiperidin-3-yl)-5-((6-oxo-6-(4-(4-(8-(piperidin-4-yl)quinoxalin-2-yl)-1H-pyrazol-1-yl)piperidin-1-yl)hexyl)amino)isoindoline-1,3-dione] | – | – | – | – |
| > 1000 nM | 10 to 100 nM | 100 to 1000 nM | 10 to 100 nM | CN1CCN(c2cnn(C3CCN(C(=O)CCCCCNc4ccc5c(c4)C(=O)N(C4CCC(=O)NC4=O)C5=O)CC3)c2)CC1 (centres unmarked) [GS-046, 2-(2,6-Dioxopiperidin-3-yl)-5-((6-(4-(4-(4-methylpiperazin-1-yl)-1H-pyrazol-1-yl)piperidin-1-yl)-6-oxohexyl)amino)isoindoline-1,3-dione] | – | – | – | – |
| 100 to 1000 nM | 10 to 100 nM | 100 to 1000 nM | 10 to 100 nM | O=C1CCC(N2C(=O)c3ccc(NCCCCCC(=O)N4CCC(n5cc(N6CCOCC6)cn5)CC4)cc3C2=O)C(=O)N1 (centres unmarked) [GS-047, 2-(2,6-Dioxopiperidin-3-yl)-5-((6-(4-(4-morpholino-1H-pyrazol-1-yl)piperidin-1-yl)-6-oxohexyl)amino)isoindoline-1,3-dione] | – | – | – | – |
| 10 to 100 nM | < 10 nM | 100 to 1000 nM | 10 to 100 nM | O=C1CCC(N2C(=O)c3ccc(NCCCCCC(=O)N4CCC(n5cc(N6CCCCC6)cn5)CC4)cc3C2=O)C(=O)N1 (centres unmarked) [GS-048, 2-(2,6-Dioxopiperidin-3-yl)-5-((6-oxo-6-(4-(4-(piperidin-1-yl)-1H-pyrazol-1-yl)piperidin-1-yl)hexyl)amino)isoindoline-1,3-dione] | – | – | – | – |
| 10 to 100 nM | 10 to 100 nM | 10 to 100 nM | < 10 nM | O=C1CCC(N2C(=O)c3ccc(NCCCCCC(=O)N4CCC(n5cc(C6CCCCC6)cn5)CC4)cc3C2=O)C(=O)N1 (centres unmarked) [GS-049, 5-((6-(4-(4-Cyclohexyl-1H-pyrazol-1-yl)piperidin-1-yl)-6-oxohexyl)amino)-2-(2,6-dioxopiperidin-3-yl)isoindoline-1,3-dione] | – | – | – | – |
| 10 to 100 nM | < 10 nM | 100 to 1000 nM | 10 to 100 nM | O=C1CCC(N2C(=O)c3ccc(NCCCCCC(=O)N4CCC(n5cc(-c6ncccn6)cn5)CC4)cc3C2=O)C(=O)N1 (centres unmarked) [GS-051, 2-(2,6-Dioxopiperidin-3-yl)-5-((6-oxo-6-(4-(4-(pyrimidin-2-yl)-1H-pyrazol-1-yl)piperidin-1-yl)hexyl)amino)isoindoline-1,3-dione] | – | – | – | – |
